Reference: patent US12552767B2, “3-heteroaryl pyrrolidine and piperidine orexin receptor agonists” (Merck Sharp & Dohme LLC, priority 2020, dated 2026)

Molecular target: T1, human OX2R (Homo sapiens, UniProt O43614)
T1 construct: expressed in transfected cells; host or cells: CHO (Chinese hamster ovary) cells, grown under G418 selection
T1 sequence (O43614 1-444): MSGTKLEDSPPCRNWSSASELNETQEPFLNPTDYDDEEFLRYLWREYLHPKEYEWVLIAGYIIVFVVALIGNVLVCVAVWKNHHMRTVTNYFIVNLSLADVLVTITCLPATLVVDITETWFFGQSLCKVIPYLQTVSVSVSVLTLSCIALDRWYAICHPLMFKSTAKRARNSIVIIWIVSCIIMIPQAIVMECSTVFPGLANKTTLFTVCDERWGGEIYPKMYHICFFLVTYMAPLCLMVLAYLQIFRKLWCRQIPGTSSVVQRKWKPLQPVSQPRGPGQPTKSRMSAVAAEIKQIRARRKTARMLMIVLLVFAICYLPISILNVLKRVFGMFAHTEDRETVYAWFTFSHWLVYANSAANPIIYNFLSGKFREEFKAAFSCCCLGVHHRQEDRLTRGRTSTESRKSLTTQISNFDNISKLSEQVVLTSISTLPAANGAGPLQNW
Assay: IP-One (IPOne) orexin receptor agonist assay in CHO cells expressing human OX2R
Format: cell-based
Settings: for EC50: CHO cells expressing human OX2R, IP-One IP-1 detection, 2 hours incubation, four parameter logistic fit, read-out: OX2R Potency, EC50; for % of reference agonist maximal effect: human OX2R, percentage of sample raw value/mean max effect (reference compound at 1 uM with 100% activity)
Procedure, shortened: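 CHO cells stably expressing human OX2R were stimulated with compound (10-point ½-log dilutions) for 2 h at 37 °C. IP-1 accumulation was read by HTRF (IP-One, 665/620 nm). EC50 from a four-parameter fit; % effect relative to 1 μM reference agonist control.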

EC50 | % of reference agonist maximal effect | Structure (SMILES)
0.0278 µM | 100.1% | CCNC(=O)N1CCC[C@H](c2cc[nH]n2)[C@@H]1CO[C@H]1CC[C@@H](c2ccccc2)CC1 [Example 17, (2R,3S)-N-ethyl-2-((((CIS)-4-phenylcyclohexyl)oxy)methyl)-3-(1H-pyrazol-3-yl)piperidine-1-carboxamide]
4.8 µM | 63.1% | CCNC(=O)N1CCC[C@@H](c2cc[nH]n2)[C@H]1CO[C@H]1CC[C@@H](c2ccccc2)CC1 [Example 19, (2S,3R)-N-ethyl-2-((((CIS)-4-phenylcyclohexyl)oxy)methyl)-3-(1H-pyrazol-3-yl)piperidine-1-carboxamide]
1.36 µM | 81.4% | COC(=O)N1CCCC(c2ccn[nH]2)C1CO[C@H]1CC[C@@H](c2c(F)ccc(F)c2F)CC1 (some centres unmarked) [Example 29]
0.0472 µM | 100.3% | CCNC(=O)N1CCCC(c2ccn[nH]2)C1CO[C@H]1CC[C@@H](c2c(F)ccc(F)c2F)CC1 (some centres unmarked) [Example 33]
0.0178 µM | 99.9% | O=C(NCC(F)(F)F)N1CCCC(c2ccn[nH]2)C1CO[C@H]1CC[C@@H](c2c(F)ccc(F)c2F)CC1 (some centres unmarked) [Example 34]
0.542 µM | 97.9% | O=C(OCC(F)F)N1CCCC(c2ccn[nH]2)C1CO[C@H]1CC[C@@H](c2c(F)ccc(F)c2F)CC1 (stereo partly drawn) [Example 35, 2,2-Difluoroethyl 3-(1H-pyrazol-5-yl)-2-((((CIS)-4-(2,3,6-trifluorophenyl)cyclohexyl)oxy-)methyl)piperidine-1-carboxylate]
1.03 µM | 96.3% | COC(=O)N1[C@H](C)CC(c2[nH]ncc2C)[C@@H]1CO[C@H]1CC[C@@H](c2ccccc2)CC1 (stereo partly drawn) [Example 36, Methyl (2R,5R)-5-methyl-3-(4-methyl-1H-pyrazol-5-yl)-2-((((CIS)-4-phenylcyclohexyl)oxy)methyl)pyrrolidine-1-carboxylate]
5.11 µM | 85.3% | COC(=O)N1[C@H](C)CC(c2ccn[nH]2)[C@@H]1CO[C@H]1CC[C@@H](c2ccccc2)CC1 (stereo partly drawn) [Example 37, Methyl (2R,5R)-5-methyl-2-((((CIS)-4-phenylcyclohexyl)oxy)methyl)-3-(1H-pyrazol-5-yl)pyrrolidine-1-carboxylate]
0.241 µM | 95.0% | CCNC(=O)N1C(C)CCC(c2ccn[nH]2)C1COC1CCC(C(C)C)CC1 (centres unmarked) [Example 38, N-ethyl-2-(((4-isopropylcyclohexyl)oxy)methyl)-6-methyl-3-(H-pyrazol-5-yl)piperidine-1-carboxamide]
> 10 µM | 9.5% | CCc1c[nH]nc1[C@@H]1CCCN(C(=O)OC)[C@@H]1CO[C@H]1CC[C@@H](c2ccccc2)CC1 [Example 44, (2S,3R)-3-(4-ethyl-1H-pyrazol-3-yl)-2-((((CIS)-4-phenylcyclohexyl)oxy)methyl)piperidine-1-carboxylate]
0.104 µM | 100.5% | COC(=O)N1CCC[C@H](c2n[nH]cc2CO)[C@@H]1CO[C@H]1CC[C@@H](c2ccccc2)CC1 [Example 53]
3.07 µM | 66.9% | COC(=O)N1CCC[C@@H](c2n[nH]cc2C(F)F)[C@H]1CO[C@H]1CC[C@@H](c2ccccc2)CC1 [Example 56, Methyl (2S,3R)-3-(4-(difluoromethyl)-pH-pyrazol-3-yl)-2-((((CIS)-4-phenylcyclohexyl)oxy)methyl) piperidine-1-carboxylate]
0.278 µM | 99.2% | C[C@H]1C[C@H]1C(=O)N1CCC[C@H](c2cc[nH]n2)[C@@H]1COC1CCC(c2ccccc2)CC1 (stereo partly drawn) [Example 69, ((CIS)-2-methylcyclopropyl)((2R,3S)-2-((((1s,4S)-4-phenylcyclohexyl)oxy)methyl)-3-(1H-pyrazol-3-yl)piperidin-1-yl)methanone]
3.11 µM | 99.5% | COCC[C@H](N)C(=O)N1CCC[C@H](c2cc[nH]n2)[C@@H]1COC1CCC(C(C)C)CC1 (stereo partly drawn) [Example 72, (S)-2-amino-1-((CIS)-2-((((CIS)-4-isopropylcyclohexyl)oxy)methyl)-3-(1H-pyrazol-3-yl)piperidin-1-yl)-4-methoxybutan-1-one]
9.77 µM | 55.8% | CCC[C@](C)(F)C(=O)N1CCC[C@H](c2cc[nH]n2)[C@@H]1COC1CCC(C(C)C)CC1 (stereo partly drawn) [Example 89, (S)-2-fluoro-1-((CIS)-2-((((CIS)-4-isopropylcyclohexyl)oxy)methyl)-3-(1H-pyrazol-3-yl)piperidin-1-yl)-2-methylpentan-1-one]
6.64 µM | 93.5% | CN1C[C@H](COC(=O)N2CCC[C@H](c3cc[nH]n3)[C@@H]2COC2CCC(c3ccccc3)CC2)OCC1=O (stereo partly drawn) [Example 94, ((R)-4-methyl-5-oxomorpholin-2-yl)methyl (CIS)-2-((((CIS)-4-phenylcyclohexyl)oxy)methyl)-3-(1H-pyrazol-3-yl)piperidine-1-carboxylate]
5.09 µM | 52.4% | CC[C@H](C)COC(=O)N1CCC[C@H](c2cc[nH]n2)[C@@H]1CO[C@H]1CC[C@@H](c2ccccc2)CC1 [Example 107, (S)-2-methylbutyl (CIS)-2-((((CIS)-4-phenylcyclohexyl)oxy)methyl)-3-(1H-pyrazol-3-yl)piperidine-1-carboxylate]
5.27 µM | 60.7% | CC[C@@H](C)OC(=O)N1CCC[C@H](c2cc[nH]n2)[C@@H]1CO[C@H]1CC[C@@H](c2ccccc2)CC1 [Example 108, (R)-sec-butyl (CIS)-2-((((CIS)-4-phenylcyclohexyl)oxy)methyl)-3-(1H-pyrazol-3-yl)piperidine-1-carboxylate]
7.47 µM | 51.4% | C#C[C@H](C)OC(=O)N1CCC[C@H](c2cc[nH]n2)[C@@H]1CO[C@H]1CC[C@@H](c2ccccc2)CC1 [Example 115, (S)-but-3-yn-2-yl (CIS)-2-((((CIS)-4-phenylcyclohexyl)oxy)methyl)-3-(1H-pyrazol-3-yl)piperidine-1-carboxylate]
7.76 µM | 56.1% | CC[C@H](C)OC(=O)N1CCC[C@H](c2cc[nH]n2)[C@@H]1CO[C@H]1CC[C@@H](c2ccccc2)CC1 [Example 116, (S)-sec-butyl (CIS)-2-((((CIS)-4-phenylcyclohexyl)oxy)methyl)-3-(1H-pyrazol-3-yl)piperidine-1-carboxylate]
9.69 µM | 50.6% | CO[C@@H](C)COC(=O)N1CCC[C@H](c2cc[nH]n2)[C@@H]1CO[C@H]1CC[C@@H](c2ccccc2)CC1 [Example 119, (S)-2-methoxypropyl (CIS)-2-((((CIS)-4-phenylcyclohexyl)oxy)methyl)-3-(1H-pyrazol-3-yl)piperidine-1-carboxylate]
5.94 µM | 69.6% | CC[C@@H](C)NC(=O)N1CCC[C@H](c2cc[nH]n2)[C@@H]1CO[C@H]1CC[C@@H](c2ccccc2)CC1 [Example 128, (CIS)-N-((R)-sec-butyl)-2-((((CIS)-4-phenylcyclohexyl)oxy)methyl)-3-(1H-pyrazol-3-yl)piperidine-1-carboxamide]
